The text below walks through data of patent publication US4746658A, “2-phenyl-imidazo-pyrazines, -pyridazines and -triazines” (Dr. Karl Thomae GmbH, priority 1983, dated 1988).

In this assay the test system is anesthetized cat. Briefly: Determination of the effect on blood pressure and of the positive inotropic effect in the anesthetized cat. It counts as in vivo. Conditions: injected into vena femoralis, average, at least 3 cats; for Effect on blood pressure in mm Hg (first figure of pair) / Effect on blood pressure in mm Hg (second figure of pair): arterial pressure in aorta abdominalis. The procedure: The above pharmacological properties were ascertained for the compounds of the present invention by the standard pharmacological test method described below, and the results of this test for two representative species of the genus are shown in the table below, where
Determination of the effect on blood pressure and of the positive inotropic effect in the anesthetized cat
The tests were carried out on cats which had been anesthetized with sodium pentobarbital (40 mg/kg i.p.). The animals breathed spontaneously. The arterial blood pressure was measured in the aorta abdominalis with a Statham pressure transducer (P 23 Dc). In order to determine the positive inotropic activity, the pressure in the left ventricle was measured with a catheter-tip manometer (Millar PC-350 A). From this the contractility parameter dp/dt was obtained, using an analog differentiator. The test compounds were injected into a vena femoralis. Polydiol 200 was used as the solvent. Each compound was tested on at least 3 cats.

For the molecule `COc1cc(OS(C)(=O)=O)ccc1-c1nc2nccnc2[nH]1` [A, 2-(2-methoxy-4-methanesulfonyloxy-phenyl)-imidazo[4,5-b]pyrazine], where the note is “0.6 mg/kg”, the “Effect on blood pressure in mm Hg (first figure of pair)” value is -24 mm Hg, the “Effect on blood pressure in mm Hg (second figure of pair)” value was -21 mm Hg, the “Duration of activity (half life)” value was 20 min and the “Increase in dp/dtmax in %” value is listed as 54%.
In the case of `COc1cc(OS(C)(=O)=O)ccc1-c1nc2cnncc2[nH]1` [B, 2-(2-Methoxy-4-methanesulfonyloxy-phenyl)-imidazo[4,5-d]pyridazine], under “0.3 mg/kg”, the “Effect on blood pressure in mm Hg (first figure of pair)” value is -31 mm Hg, the “Effect on blood pressure in mm Hg (second figure of pair)” value was -18 mm Hg, the “Duration of activity (half life)” value was found to be 38 min and the “Increase in dp/dtmax in %” value is recorded as 36%.
